From BigSolDB 2.1

O=C(O)CC(O)C(=O)O (configuration not stated)
solubility (mole fraction)
Conditions	303.2 K	308.2 K	313.2 K	318.2 K	323.2 K	328.2 K	333.2 K
in 1,4-dioxane	0.14	0.153	0.16	0.168	0.177	0.192	0.21
in THF	0.145	0.156	0.191	0.199	0.219	0.235	0.253
in acetonitrile	0.007	0.009	0.011	0.012	0.015	0.017	0.021
in ethanol	0.082	0.091	0.101	0.115	0.121	0.129	0.134
in isopropanol	0.036	0.045	0.055	0.071	0.094	0.118	0.134
in water	0.066	0.084	0.106	0.132	0.154	0.17	0.184
